Assays:
[1] = biological target: [35S]-TBPS binding, rat brain cortical membranes; assay: Steroid inhibition of [35S]-TBPS binding; conditions: 3 nM [35S]-TBPS, in the presence of 5 μM GABA
Method: Steroid Inhibition of TBPS Binding
[35S]-t-Butylbicylophorothionate (TBPS) binding assays using rat brain cortical membranes in the presence of 5 μM GABA has been described (Gee et al, J. Pharmacol. Exp. Ther. 1987, 241, 346-353; Hawkinson et al, Mol. Pharmacol. 1994, 46, 977-985; Lewin, A. H et al., Mol. Pharmacol. 1989, 35, 189-194).
Briefly, cortices are rapidly removed following decapitation of carbon dioxide-anesthetized Sprague-Dawley rats (200-250 g). The cortices are homogenized in 10 volumes of ice-cold 0.32 M sucrose using a glass/teflon homogenizer and centrifuged at 1500×g for 10 min at 4° C. The resultant supernatants are centrifuged at 10,000×g for 20 min at 4° C. to obtain the P2 pellets. The P2 pellets are resuspended in 200 mM NaCl/50 mM Na—K phosphate pH 7.4 buffer and centrifuged at 10,000×g for 10 min at 4° C. This washing procedure is repeated twice and the pellets are resuspended in 10 volumes of buffer. Aliquots (100 μL) of the membrane suspensions are incubated with 3 nM [^35S]-TBPS and 5 μL aliquots of test drug dissolved in dimethyl sulfoxide (DMSO) (final 0.5%) in the presence of 5 μM GABA. The incubation is brought to a final volume of 1.0 mL with buffer. Nonspecific binding is determined in the presence of 2 μM unlabeled TBPS and ranged from 15 to 25%. Following a 90 min incubation at room temp, the assays are terminated by filtration through glass fiber filters (Schleicher and Schuell No. 32) using a cell harvester (Brandel) and rinsed three times with ice-cold buffer. Filter bound radioactivity is measured by liquid scintillation spectrometry. Non-linear curve fitting of the overall data for each drug averaged for each concentration is done using Prism (GraphPad).
Various compounds are or can be screened to determine their potential as modulators of [^355]-TBPS binding in vitro. These assays are or can be performed in accordance with the above discussed procedures.

[2] = biological target: α1β2γ2 GABAA receptor (Homo sapiens (Human), UniProt P14867+P47870); conditions: for Emax at 10 µM: LTK, read-out: GABA (α1β2γ2) Qpatch in Ltk, % efficacy at 10 μM, Qpatch, Ltk cells, 10 μM compound, 2 μM GABA
Method: (§1) LTK cells are stably transfected with the α1β2γ2 subunits of the GABA receptor and CHO cells are transiently transfected with the α4β3δ subunits via the Lipofecatamine method. Cells were passaged at a confluence of about 50-80% and then seeded onto 35 mm sterile culture dishes containing 2 ml culture complete medium without antibiotics or antimycotics.
(§2) Whole cell currents were measured with HEKA EPC-10 amplifiers using PatchMaster software or by using the high throughput QPatch platform (Sophion). […] In some cases 0.005% cremophor was also added. Intracellular (pipette) solution contained: KCl 130 mM, MgCl2 1 mM, Mg-ATP 5 mM, HEPES 10 mM, EGTA 5 mM, pH 7.2. During experiments, cells and solutions were maintained at room temperature (19° C.-30° C.). For manual patch clamp recordings, cell culture dishes were placed on the dish holder of the microscope and continuously perfused (1 ml/min) with bath solution. After formation of a Gigaohm seal between the patch electrodes and the cell (pipette resistance range: 2.5 MΩ-6.0 MΩ; seal resistance range: >1 GΩ) the cell membrane across the pipette tip was ruptured to assure electrical access to the cell interior (whole-cell patch-configuration). For experiments using the QPatch system, cells were transferred as suspension to the QPatch system in the bath solution and automated whole cell recordings were performed.
(§3) Cells were voltage clamped at a holding potential of −80 mV. For the analysis of test articles, GABA receptors were stimulated by 2 μM GABA after sequential pre-incubation of increasing concentrations of the test article. Pre-incubation duration was 30 s and the duration of the GABA stimulus was 2 s. Test articles were dissolved in DMSO to form stock solutions (10 mM). Test articles were diluted to 0.01, 0.1, 1, and 10 μM in bath solution. All concentrations of test articles were tested on each cell. The relative percentage potentiation was defined as the peak amplitude in response to GABA EC20 in the presence of the test article divided by the peak amplitude in response to GABA EC20 alone, multiplied by 100.

[3] = biological target: α4β3δ GABAA receptor (Homo sapiens (Human), UniProt P28472+P48169); assay: Patch clamp electrophysiology of recombinant α4β3δ GABAA receptors (CHO cells); conditions: read-out: GABA (α4β3δ) Qpatch in CHO, % efficacy at 10 μM
Method: as §1, §2, §3

| Structure (SMILES) | IC50 [1] [nM] | Emax at 10 µM [2] [%] | Emax at 10 µM [3] [%] | GABA (α1β2γ2) Qpatch in Ltk, % efficacy at 10 μM ([2]; Qpatch, Ltk cells, 10 μM compound, 2 μM GABA) |
| --- | --- | --- | --- | --- |
| C[C@@]1(O)CC[C@H]2[C@H](CC[C@@H]3[C@@H]2CC[C@]2(C)[C@@H](C(=O)CN4CCC(O)C4)CC[C@@H]32)C1 (stereo partly drawn) [Entry 4] | 100 to 500 | 100 to 500 | – | – |
| C[C@@]1(O)CC[C@H]2[C@H](CC[C@@H]3[C@@H]2CC[C@]2(C)[C@@H](C(=O)CN4CCN(S(C)(=O)=O)CC4)CC[C@@H]32)C1 [Entry 8] | – | > 500 | > 500 | – |
| CC(=O)N1CCN(CC(=O)[C@H]2CC[C@H]3[C@@H]4CC[C@H]5C[C@](C)(O)[C@@H](C)C[C@@H]5[C@H]4CC[C@]23C)CC1 [Entry 27] | – | 100 to 500 | 100 to 500 | – |
| C[C@H]1C[C@H]2[C@@H](CC[C@@H]3[C@@H]2CC[C@]2(C)[C@@H](C(=O)CN4CCOCC4)CC[C@@H]32)C[C@]1(C)O [Entry 45] | – | 10 to 100 | > 500 | – |
| C[C@]12CC[C@H]3[C@@H](CC[C@@H]4C[C@@](O)(CF)CC[C@@H]43)[C@@H]1CC[C@@H]2C(=O)CN1CCOCC1 [Entry 55] | – | 10 to 100 | – | – |
| C[C@]12CC[C@H]3[C@@H](CC[C@@H]4C[C@@](O)(C(F)F)CC[C@@H]43)[C@@H]1CC[C@@H]2C(=O)CN1CCN(S(C)(=O)=O)CC1 [Entry 56] | – | 100 to 500 | – | – |
| COC[C@@]1(O)CC[C@H]2[C@@H](CC[C@@H]3[C@@H]2CC[C@]2(C)[C@@H](C(=O)CN4CCN(S(C)(=O)=O)CC4)CC[C@@H]32)C1 [Entry 57] | – | – | – | C (“C” ≥500) |
| C[C@@]1(O)CC[C@H]2[C@H](CC[C@@H]3[C@@H]2CC[C@]2(C)[C@@H](C(=O)CN4CCCOCC4)CC[C@@H]32)C1 [Entry 58] | – | > 500 | – | – |
